We go through 25 molecules from patent US11760722B2 (priority 2022, dated 2023).

One test deals with T1, COVID-19 WT Mpro (Severe acute respiratory syndrome coronavirus 2, UniProt P0DTD1).
T1 construct: The C-His6-tagged COVID-19 WT Mpro (NC_045512); His6 (C); host or cells: E. coli
The experiment in a line: biochemical. Conditions: WT Mpro 25 nM, substrate 25 μM, 30 min pre-incubation; several values in a cell = repeat determinations.

The test system of test [1] is human coronavirus (HCoV) 229E. Put plainly: microbe, parasite or virus in culture. Conditions: unidentified human coronavirus, 72 h, MRCS cells, HCoV 229E, 3 days, CellTiter Glo; read-out: 229E CPE EC50. The test is classed as cell-based, human coronavirus 229E.
Description: Test compounds were provided by the sponsor. Reference compound remdesivir was provided by WuXi AppTec. Compounds were assayed at 8 concentrations (to be defined by sponsor), in duplicate wells.
MRCS cells were obtained from the ATCC, and maintained in the Minimum Essential Medium supplemented with 10% FBS, 1% L-glutamine, 1% NEAA and 1% penicillin-streptomycin. Minimum Essential Medium supplemented with 5% FBS, 1% L-glutamine, 1% NEAA and 1% penicillin-streptomycin was used as the assay medium.
Cells were seeded in 96 well plates, in 100 μl per well of assay medium, and cultured at 37° C. and 5% CO2 overnight. Next day, test compound was diluted with assay medium and then added into the cells, 50 μl per well. Then 50 μl per well of assay medium diluted virus was added. The final volume of the cell culture was 200 μl per well. […] The CPE were measured by CellTiter Glo following the manufacturer's manual. The antiviral activity of compounds was calculated based on the protection of the virus-induced CPE at each concentration normalized by the virus control.
EC50 and CC50 values were calculated using the GraphPad Prism software using the nonlinear regression model of log(inhibitor) vs. response—Variable slope (four parameters).
For a further test, the system named is SARS-CoV-2 replicon. Put plainly: microbe, parasite or virus in culture. The test is classed as cell-based. Conditions: read-out: Replicon EC50. (In general: In antiviral work, replicon cells carry a viral genome segment that copies itself.)
The mark [2] stands for this setting: Severe acute respiratory syndrome coronavirus 2, Huh-7, 24 h.

Several values for one entry are separate records, joined by “and”; a condition that tells them apart may be missing. Equal values may be shown once. Read-outs that look alike come from different tables or passages of the source.

A word on the IC50: it is the point on the concentration scale where inhibition reaches its midpoint. Read a low IC50 as greater potency in that assay. In general, EC50 refers to the midpoint of the concentration-response curve. `CC(C)(C)[C@H](NC(=O)[C@@H](NC(=O)c1cnccn1)C1CCCCC1)C(=O)N1C[C@H]2[C@@H]([C@H]1C(=O)N[C@H](C#N)C[C@@H]1CCNC1=O)C2(C)C` [Compound 13]: the IC50 on COVID-19 WT Mpro is 0.066 µM and 0.256 µM. The EC50 in test [1] turned out to be 9.81 µM; with SARS-CoV-2 replicon (setting [2]), 1.63 µM; in the test on SARS-CoV-2 replicon, 1.93 µM.

As to `CC(C)(C)OC(=O)N1C2CCC1CC(C(=O)N[C@H](C(=O)N1C[C@H]3[C@@H]([C@H]1C(=O)N[C@H](C#N)C[C@@H]1CCNC1=O)C3(C)C)C(C)(C)C)C2` (stereo partly shown) [Compound 17], the IC50 on COVID-19 WT Mpro came out at 0.704 µM. Moreover, the EC50 in test [1] worked out at 7.96 µM; in the test on SARS-CoV-2 replicon (setting [2]) it was 2.64 µM.

`CC(C)(C)[C@H](NC(=O)C1CC2CCC(C1)O2)C(=O)N1C[C@H]2[C@@H]([C@H]1C(=O)N[C@H](C#N)C[C@@H]1CCNC1=O)C2(C)C` (stereo partly shown) [Compound 19] returned an IC50 against COVID-19 WT Mpro of 3.71 µM. In addition, the EC50 (in test [1]; with SARS-CoV-2 replicon (setting [2])) was over 30 µM each time.

As to `CC(C)(C)[C@H](NC(=O)C1COC1)C(=O)N1C[C@H]2[C@@H]([C@H]1C(=O)N[C@H](C#N)C[C@@H]1CCNC1=O)C2(C)C` [Compound 21], the IC50 on COVID-19 WT Mpro came out at 0.161 µM. For the same molecule, the EC50 (in test [1]; in the test on SARS-CoV-2 replicon (setting [2])) was over 30 µM in each case.

The molecule `CC(C)(C)[C@H](NC(=O)c1ccc2[nH]ncc2c1)C(=O)N1C[C@H]2[C@@H]([C@H]1C(=O)N[C@H](C#N)C[C@@H]1CCNC1=O)C2(C)C` [Compound 24] gave an IC50 against COVID-19 WT Mpro of 0.143 µM. Moreover, the EC50 stood at 23.4 µM in test [1] and 3.61 µM in the test on SARS-CoV-2 replicon (setting [2]).

The molecule `COC(C)(C)C(=O)N[C@H](C(=O)N1C[C@H]2[C@@H]([C@H]1C(=O)N[C@H](C#N)C[C@@H]1CCNC1=O)C2(C)C)C(C)(C)C` [Compound 25] gave an IC50 against COVID-19 WT Mpro of 0.161 µM. The EC50 in test [1] was found to be 2.47 µM; in the test on SARS-CoV-2 replicon (setting [2]) it was 2.35 µM.

Take `CC(C)(C)[C@H](NC(=O)c1cc2ccccc2s1)C(=O)N1C[C@H]2[C@@H]([C@H]1C(=O)N[C@H](C#N)C[C@@H]1CCNC1=O)C2(C)C` [Compound 26]: at COVID-19 WT Mpro, half-maximal inhibition (IC50) required 0.41 µM. Further, the figures for the half-maximal effective concentration (EC50) (in test [1]; in the test on SARS-CoV-2 replicon (setting [2])) were 5.86 µM and 2.56 µM, respectively.

At COVID-19 WT Mpro, `CC(C)(C)[C@H](NC(=O)c1cc2ccccc2[nH]1)C(=O)N1C[C@H]2[C@@H]([C@H]1C(=O)N[C@H](C#N)C[C@@H]1CCNC1=O)C2(C)C` [Compound 28] showed an IC50 of 0.728 µM. Also, the EC50 in test [1] was determined as 6.12 µM; in the test on SARS-CoV-2 replicon (setting [2]), 2.05 µM.

The molecule `CC(C)(C)[C@H](NC(=O)c1ccc2cncn2c1)C(=O)N1C[C@H]2[C@@H]([C@H]1C(=O)N[C@H](C#N)C[C@@H]1CCNC1=O)C2(C)C` [Compound 29] came in with an IC50 against COVID-19 WT Mpro of 0.405 µM. In addition, the EC50 (in test [1]; in the test with SARS-CoV-2 replicon (setting [2])) was over 30 µM in each case.

Molecule `CC(C)(C)[C@H](NC(=O)c1c(F)c(F)c(F)c(F)c1F)C(=O)N1C[C@H]2[C@@H]([C@H]1C(=O)N[C@H](C#N)C[C@@H]1CCNC1=O)C2(C)C` [Compound 30] returned an IC50 on COVID-19 WT Mpro of 0.714 µM. Also, the results for the EC50 (in test [1]; in the test on SARS-CoV-2 replicon (setting [2])) were 1.8 µM and 3.56 µM, respectively.

For the molecule `CC(C)(C)[C@H](NC(=O)c1cn2ccccc2n1)C(=O)N1C[C@H]2[C@@H]([C@H]1C(=O)N[C@H](C#N)C[C@@H]1CCNC1=O)C2(C)C` [Compound 31], at COVID-19 WT Mpro, it took 2.75 µM to reach half-maximal inhibition (IC50). The figures for the EC50 (in test [1]; in the test with SARS-CoV-2 replicon (setting [2])) were over 30 µM and 22.2 µM, respectively.

`CC(C)(C)OC(=O)N1c2ccccc2CC1C(=O)N[C@H](C(=O)N1C[C@H]2[C@@H]([C@H]1C(=O)N[C@H](C#N)C[C@@H]1CCNC1=O)C2(C)C)C(C)(C)C` (stereo partly shown) [Compound 36]: inhibition against COVID-19 WT Mpro was half-maximal at 0.617 µM (IC50). The EC50 in test [1] worked out at 15.6 µM; in the test with SARS-CoV-2 replicon (setting [2]), 2.75 µM.

`CC(C)(C)OC(=O)N1[C@@H](C(=O)N[C@H](C(=O)N2C[C@H]3[C@@H]([C@H]2C(=O)N[C@H](C#N)C[C@@H]2CCNC2=O)C3(C)C)C(C)(C)C)C[C@H]2CCCC[C@H]21` [Compound 37] registered an IC50 against COVID-19 WT Mpro of 2.15 µM. Besides, the EC50 is over 30 µM in test [1] and 4.49 µM in the test on SARS-CoV-2 replicon (setting [2]).

Regarding `CN(C(=O)OC(C)(C)C)C(C)(C)C(=O)N[C@H](C(=O)N1C[C@H]2[C@@H]([C@H]1C(=O)N[C@H](C#N)C[C@@H]1CCNC1=O)C2(C)C)C(C)(C)C` [Compound 38], inhibition against COVID-19 WT Mpro was half-maximal at 9.82 µM (IC50). Also, the EC50 (in test [1]; in the test on SARS-CoV-2 replicon (setting [2])) was over 30 µM in each case.

Molecule `CN(C)C(=O)N[C@H](C(=O)N1C[C@H]2[C@@H]([C@H]1C(=O)N[C@H](C#N)C[C@@H]1CCNC1=O)C2(C)C)C(C)(C)C` [Compound 39, (1R,2S,5S)—N—((S)-1-cyano-2-((S)-2-oxopyrrolidin-3-yl)ethyl)-3-((S)-2-(3,3-dimethylureido)-3,3-dimethylbutanoyl)-6,6-dimethyl-3-azabicyclo[3.1.0]hexane-2-carboxamide] gave an IC50 on COVID-19 WT Mpro of 0.421 µM. In addition, the EC50 in test [1] was over 30 µM; in the test on SARS-CoV-2 replicon (setting [2]), 17.6 µM.

At COVID-19 WT Mpro, `CC(C)(C)[C@H](NC(=O)c1nc2ccccc2[nH]1)C(=O)N1C[C@H]2[C@@H]([C@H]1C(=O)N[C@H](C#N)C[C@@H]1CCNC1=O)C2(C)C` [Compound 41] displayed an IC50 of 7.88 µM. Further, the 50% effective concentration (EC50) (in test [1]; with SARS-CoV-2 replicon (setting [2])) was over 30 µM in each case.

`CC(C)(C)[C@H](NC(=O)c1ccc2cc[nH]c2c1)C(=O)N1C[C@H]2[C@@H]([C@H]1C(=O)N[C@H](C#N)C[C@@H]1CCNC1=O)C2(C)C` [Compound 42]: half-maximal inhibition at COVID-19 WT Mpro (IC50) was put at 0.121 µM. Further, the EC50 in the test on SARS-CoV-2 replicon (setting [2]) amounted to 2.48 µM.

The molecule `CC(C)(C)[C@H](NC(=S)NC1CCCCC1)C(=O)N1C[C@H]2[C@@H]([C@H]1C(=O)N[C@H](C#N)C[C@@H]1CCNC1=O)C2(C)C` [Compound 43] showed an IC50 at COVID-19 WT Mpro of 1.23 µM. For the same molecule, the EC50 in the test with SARS-CoV-2 replicon (setting [2]) turned out to be 3.21 µM.

Molecule `CC(C)(C)[C@H](NC(=O)C1Cc2ccccc2N1)C(=O)N1C[C@H]2[C@@H]([C@H]1C(=O)N[C@H](C#N)C[C@@H]1CCNC1=O)C2(C)C` (stereo partly shown) [Compound 45] showed a 50% inhibitory concentration (IC50) on COVID-19 WT Mpro of 0.385 µM. In addition, the EC50 in the test on SARS-CoV-2 replicon (setting [2]) is 0.96 µM.

At COVID-19 WT Mpro, `CC(C)(C)[C@H](NC(=O)[C@H]1C[C@H]2CCCC[C@H]2N1)C(=O)N1C[C@H]2[C@@H]([C@H]1C(=O)N[C@H](C#N)C[C@@H]1CCNC1=O)C2(C)C` [Compound 46] gave a half-maximal inhibitory concentration (IC50) of 7.5 µM. For the same molecule, the EC50 in the test with SARS-CoV-2 replicon (setting [2]) is over 30 µM.

Turning to `CC(C)(C)[C@H](NC(=O)N1CCOCC1)C(=O)N1C[C@H]2[C@@H]([C@H]1C(=O)N[C@H](C#N)C[C@@H]1CCNC1=O)C2(C)C` [Compound 48], on COVID-19 WT Mpro, the IC50 is 0.224 µM. Moreover, in the test on SARS-CoV-2 replicon (setting [2]), the 50% effective concentration (EC50) was found to be 22 µM.

On to `CC1(C)[C@@H]2[C@@H](C(=O)N[C@H](C#N)C[C@@H]3CCNC3=O)N(C(=O)[C@@H](NC(=O)C(F)(F)F)C34CC(C3)C4)C[C@@H]21` [Compound 50], for which, at COVID-19 WT Mpro, the IC50 was 0.06 µM. Also, the EC50 in the test with SARS-CoV-2 replicon (setting [2]) worked out at 0.27 µM.

`CC(C)(C)[C@H](NC(=O)c1cc2ccccn2n1)C(=O)N1C[C@H]2[C@@H]([C@H]1C(=O)N[C@H](C#N)C[C@@H]1CCNC1=O)C2(C)C` [Compound 51]: half-maximal inhibition at COVID-19 WT Mpro (IC50) was put at 9.4 µM. Further, in the test with SARS-CoV-2 replicon (setting [2]), the EC50 stood at 9.54 µM.

For the molecule `CC(C)(C)[C@H](NC(=O)N1CCCCC1)C(=O)N1C[C@H]2[C@@H]([C@H]1C(=O)N[C@H](C#N)C[C@@H]1CCNC1=O)C2(C)C` [Compound 55], the IC50 on COVID-19 WT Mpro stood at 1.05 µM. In the test with SARS-CoV-2 replicon (setting [2]), the EC50 stood at 6.04 µM.

On COVID-19 WT Mpro, `CC(C)(C)OC(=O)N1CCCC1(C)C(=O)N[C@H](C(=O)N1C[C@H]2[C@@H]([C@H]1C(=O)N[C@H](C#N)C[C@@H]1CCNC1=O)C2(C)C)C(C)(C)C` (stereo partly shown) [Compound 57] yielded an IC50 of 0.057 µM. For the same molecule, in the test on SARS-CoV-2 replicon (setting [2]), the EC50 was found to be 0.4 µM.
